The NIST ThermoML archive (doi:10.1021/acs.jced.8b01048)
± gives the expanded uncertainty stated by the source.

Test: xn = mol fraction of the nth substance listed
Conditions: 100 kPa, Liquid, Vibrating tube method

CC(=O)[O-].CCn1cc[n+](C)c1 [1-ethyl-3-methylimidazolium acetate] + C[S+](C)[O-]
mass density [kg/m3]
Conditions	293.15 K	303.15 K	313.15 K	323.15 K	333.15 K	343.15 K	353.15 K	363.15 K	373.15 K
x2 = 0	1101.7 ± 0.5	1095.6 ± 0.5	1089.6 ± 0.5	1083.7 ± 0.5	1077.7 ± 0.5	1071.8 ± 0.5	1065.9 ± 0.5	1060 ± 0.5	1054.2 ± 0.5
x2 = 0.053	1102.4 ± 0.5	1096.3 ± 0.5	1090.3 ± 0.5	1084.2 ± 0.5	1078.1 ± 0.5	1072 ± 0.5	1066.1 ± 0.5	1060.1 ± 0.5	1054.1 ± 0.5
x2 = 0.103	1103 ± 0.5	1096.9 ± 0.5	1090.8 ± 0.5	1084.5 ± 0.5	1078.3 ± 0.5	1072.2 ± 0.5	1066.1 ± 0.5	1060 ± 0.5	1054 ± 0.5
x2 = 0.196	1103.8 ± 0.5	1097.5 ± 0.5	1091.2 ± 0.5	1084.8 ± 0.5	1078.4 ± 0.5	1072.2 ± 0.5	1065.9 ± 0.5	1059.8 ± 0.5	1053.6 ± 0.5
x2 = 0.301	1104.9 ± 0.5	1098.4 ± 0.5	1091.8 ± 0.5	1085.2 ± 0.5	1078.7 ± 0.5	1072.1 ± 0.5	1065.6 ± 0.5	1059.3 ± 0.5	1052.9 ± 0.5
x2 = 0.401	1105.8 ± 0.5	1099 ± 0.5	1092.2 ± 0.5	1085.3 ± 0.5	1078.7 ± 0.5	1071.8 ± 0.5	1065.2 ± 0.5	1058.4 ± 0.5	1051.8 ± 0.5
x2 = 0.501	1106.6 ± 0.5	1099.5 ± 0.5	1092.4 ± 0.5	1085.4 ± 0.5	1078.3 ± 0.5	1071.3 ± 0.5	1064.4 ± 0.5	1057.5 ± 0.5	1050.6 ± 0.5
x2 = 0.6	1107.4 ± 0.5	1099.9 ± 0.5	1092.5 ± 0.5	1085.1 ± 0.5	1077.8 ± 0.5	1070.4 ± 0.5	1063.1 ± 0.5	1055.8 ± 0.5	1048.5 ± 0.5
x2 = 0.686	1107.6 ± 0.5	1099.9 ± 0.5	1092 ± 0.5	1084.3 ± 0.5	1076.6 ± 0.5	1068.9 ± 0.5	1061.2 ± 0.5	1053.6 ± 0.5	1046 ± 0.5
x2 = 0.802	1107.2 ± 0.5	1098.8 ± 0.5	1090.4 ± 0.5	1082 ± 0.5	1073.7 ± 0.5	1065.4 ± 0.5	1057.1 ± 0.5	1048.8 ± 0.5	1040.4 ± 0.5
x2 = 0.899	1105.4 ± 0.5	1096.3 ± 0.5	1087.3 ± 0.5	1078.3 ± 0.5	1069.3 ± 0.5	1060.3 ± 0.5	1051.3 ± 0.5	1042.3 ± 0.5	1033.2 ± 0.5
